The target of one experiment is T1, NS3-NS4A protease (Hepatitis C virus genotype 1a, UniProt P27958).
T1 construct: Recombinant E. coli or Baculovirus full-length NS3 was diluted to 3.33 μM with assay buffer; made in house; host or cells: E. coli or baculovirus (BV) system
Briefly: NS3-NS4A protease assay (NS3 inhibition assay, RETS1 substrate), Section B. Type of experiment: biochemical. The following applies: read-out: NS3-NS4A IC50. An outline of the steps:
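Full-length NS3 (E. coli or baculovirus) precomplexed with excess NS4A-2 peptide, run at 2 nM (E. coli) or 3 nM (BV) NS3; compounds pre-incubated 10 min at room temperature before RETS1 substrate. Fluorescence (ex 335/em 495 nm) read kinetically 30 min; IC50 from four-parameter fit, converted to Ki via Ki=IC50/(1+[S]/Km).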

Experiment [1] concerns HCV sub-genomic replicon, GS4.3. Briefly: Quantitation by ELISA of NPTII in the HCV sub-genomic replicon, GS4.3, Section B. Type of experiment: cell-based. The following applies: Hepatitis C virus; GS4.3 cells, 72 h incubation; read-out: Replicon EC50. An excerpt: Quantitation by ELISA of the Selectable Marker Protein, Neomycin Phosphotransferase II (NPTII) in the HCV Sub-Genomic Replicon, GS4.3
The HCV sub-genomic replicon (1377/NS3-3′, accession No. AJ242652), stably maintained in HuH-7 hepatoma cells, was created by Lohmann et al. Science 285: 110-113 (1999). The replicon-containing cell culture, designated GS4.3, was obtained from Dr. Christoph Seeger of the Institute for Cancer Research, Fox Chase Cancer Center, Philadelphia, Pa.
GS4.3 cells were maintained at 37° C., 5% CO2, in DMEM (Gibco 11965-092) supplemented with L-glutamine 200 mM (100×) (Gibco25030-081), non-essential amino acids (NEAA)(Biowhittaker 13-114E), heat-inactivated (HI) Fetal Bovine Serum(FBS)(Hyclone SH3007.03) and 750 μg/ml geneticin (G418)(Gibco 10131-035). Cells were sub-divided 1:3 or 4 every 2-3 days.
24 hours prior to the assay, GS4.3 cells were collected, counted, and plated in 96-well plates (Costar 3585) at 7500 cells/well in 100 μl standard maintenance medium (above) and incubated in the conditions above. To initiate the assay, culture medium was removed, cells were washed once with PBS (Gibco 10010-023) and 90 μl Assay Medium (DMEM, L-glutamine, NEAA, 10% HI FBS, no G418) was added. Inhibitors were made as a 10× stock in Assay Medium, (3-fold dilutions from 10 μM to […] final concentration, final DMSO concentration 1%), 10 μl were added to duplicate wells, plates were rocked to mix, and incubated as above for 72 h.
An NPTII ELISA kit was obtained from AGDIA, Inc. (Compound direct ELISA test system for Neomycin Phosphotransferase II, PSP 73000/4800). Manufacturer's instructions were followed, with some modifications. 10×PEB-1 lysis buffer was made up to include 500 μM PMSF (Sigma P7626, 50 mM stock in isopropanol). After 72 h incubation, cells were washed once with PBS and 150 μl PEB-1 with PMSF was added per well. Plates were agitated vigorously for 15 minutes, room temperature, then frozen at −70° C. Plates were thawed, lysates were mixed thoroughly, and 100 μl were applied to an NPTII Elisa plate. A standard curve was made. Lysate from DMSO-treated control cells was pooled, serially diluted with PEB-1 with PMSF, and applied to duplicate wells of the ELISA plate, in a range of initial lysate amount of 150u1-2.5 ul. In addition, 100 μl buffer alone was applied in duplicate as a blank. Plates were sealed and gently agitated at room temperature for 2 h. Following capture incubation, the plates were washed 5×300 μl with PBS-T (0.5% Tween-20, PBS-T was supplied in the ELISA kit). For detection, a 1× dilution of enzyme conjugate diluent MRS-2 (5×) was made in PBS-T, into which 1:100 dilutions of enzyme conjugates A and B were added, as per instructions. Plates were resealed, and incubated with agitation, covered, room temperature, for 2 h. The washing was then repeated and 100 μl of room temperature TMB substrate was added. After approximately 30 minutes incubation (room temperature, agitation, covered), the reaction was stopped with 50 μl 3M sulfuric acid. Plates were read at 450 nm on a Molecular Devices Versamax plate reader.
Inhibitor effect was expressed as a percentage of DMSO-treated control signal, and inhibition curves were calculated using a 4-parameter equation: y=A+((B−A)/(1+((C/x)^D))), where C is half-maximal activity or EC50.
On the technique in general: An ELISA detects its analyte on a solid surface through an enzyme-linked reagent.

Broadly, the IC50 is the concentration that inhibits the measured activity by half. In general, EC50 refers to the concentration that produces a half-maximal response.

T1 sequence (P27958 1027-1657): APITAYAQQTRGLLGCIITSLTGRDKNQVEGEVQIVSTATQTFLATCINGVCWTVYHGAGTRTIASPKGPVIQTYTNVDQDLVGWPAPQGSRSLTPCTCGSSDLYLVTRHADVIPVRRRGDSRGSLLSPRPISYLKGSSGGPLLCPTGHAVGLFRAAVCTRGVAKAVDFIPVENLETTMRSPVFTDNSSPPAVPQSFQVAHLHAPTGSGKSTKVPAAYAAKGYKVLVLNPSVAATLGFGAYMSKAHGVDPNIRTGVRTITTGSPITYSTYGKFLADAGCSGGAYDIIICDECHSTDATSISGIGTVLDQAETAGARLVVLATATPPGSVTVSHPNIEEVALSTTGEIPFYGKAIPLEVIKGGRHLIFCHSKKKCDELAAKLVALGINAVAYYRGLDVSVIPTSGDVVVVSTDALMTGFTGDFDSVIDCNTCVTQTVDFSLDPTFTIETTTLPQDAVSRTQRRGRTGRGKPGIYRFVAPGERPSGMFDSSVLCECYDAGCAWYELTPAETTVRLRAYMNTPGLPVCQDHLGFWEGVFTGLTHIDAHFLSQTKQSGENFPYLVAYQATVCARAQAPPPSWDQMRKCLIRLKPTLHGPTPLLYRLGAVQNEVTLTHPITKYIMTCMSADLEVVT

As for `O=C(NC1CCCC1)N[C@H]1CCCCC/C=C\[C@@H]2C[C@@]2(C(=O)NS(=O)(=O)C2CC2)NC(=O)[C@@H]2C[C@@H](OC(=O)N3CCc4c(F)cccc4C3)CN2C1=O` [AR00304080, (1S,4R,6S,14S,18R)-5-Fluoro-3,4-dihydro-1H-isoquinoline-2-carboxylic acid 14-(3-cyclopentyl-ureido)-4-cyclopropanesulfonylaminocarbonyl-2,15-dioxo-3,16-diaza-tricyclo[14.3.0.0^4,6]nonadec-7-en-18-yl ester], the IC50 on NS3-NS4A protease is under 100 nM. In addition, the EC50 in experiment [1] was under 100 nM.
Take `O=C(N[C@H]1CCCCC/C=C\[C@@H]2C[C@@]2(C(=O)O)NC(=O)[C@@H]2C[C@@H](OC(=O)N3Cc4ccc(Cl)cc4C3)CN2C1=O)O[C@@H]1CCOC1` [AR00320448, (1S,4R,6S,14S,18R)-18-(5-Chloro-1,3-dihydro-isoindole-2-carbonyloxy)-2,15-dioxo-14-(tetrahydro-furan-3R-yloxycarbonylamino)-3,16-diaza-tricyclo[14.3.0.0^4,6]nonadec-7-ene-4-carboxylic acid]: the IC50 at NS3-NS4A protease was under 1000 nM. In experiment [1], the EC50 was under 10000 nM.
For `CC(C)(C)OC(=O)N[C@H]1CCCCC/C=C\[C@@H]2C[C@@]2(C(=O)NS(=O)(=O)C2CC2)NC(=O)[C@@H]2C[C@@H](OC(=O)N3CCc4cccc(C(F)(F)F)c4C3)CN2C1=O` [AR00298997, (1S,4R,6S,14S,18R)-8-Trifluoromethyl-3,4-dihydro-1H-isoquinoline-2-carboxylic acid 14-tert-butoxycarbonylamino-4-cyclopropanesulfonylaminocarbonyl-2,15-dioxo-3,16-diaza-tricyclo[14.3.0.0^4,6]nonadec-7-en-18-yl ester], in that order: under 100 nM and under 100 nM.
For `CC(C)(C)OC(=O)N[C@H]1CCCCC/C=C\[C@@H]2C[C@@]2(C(=O)O)NC(=O)[C@@H]2C[C@@H](OC(=O)N3CCc4cc(F)ccc4C3)CN2C1=O` [AR00304063, (1S,4R,6S,14S,18R)-14-tert-Butoxycarbonylamino-18-(6-fluoro-3,4-dihydro-1H-isoquinoline-2-carbonyloxy)-2,15-dioxo-3,16-diaza-tricyclo[14.3.0.0^4,6]nonadec-7-ene-4-carboxylic acid], in that order: under 1000 nM and under 10000 nM.
For `CC(C)(C)OC(=O)N[C@H]1CCCCC/C=C\[C@@H]2C[C@@]2(C(=O)NS(=O)(=O)C2CC2)NC(=O)[C@@H]2C[C@@H](OC(=O)N3CCc4nc(Nc5ccccc5)sc4C3)CN2C1=O` [AR00311814, (1S,4R,6S,14S,18R)-2-Phenylamino-6,7-dihydro-4H-thiazolo[5,4-c]pyridine-5-carboxylic acid 14-tert-butoxycarbonylamino-4-cyclopropanesulfonylaminocarbonyl-2,15-dioxo-3,16-diaza-tricyclo[14.3.0.0^4,6]nonadec-7-en-18-yl ester], in that order: under 100 nM and under 10000 nM.
With `CC(C)(C)OC(=O)N[C@H]1CCCCC/C=C\[C@@H]2C[C@@]2(C(=O)O)NC(=O)[C@@H]2C[C@@H](OC(=O)N3CCc4ccccc4C3)CN2C1=O` [AR00220042, (1S,4R,6S,14S,18R)-14-tert-Butoxycarbonylamino-18-(3,4-dihydro-1H-isoquinoline-2-carbonyloxy)-2,15-dioxo-3,16-diaza-tricyclo[14.3.0.0^4,6]nonadec-7-ene-4-carboxylic acid], the IC50 at NS3-NS4A protease is under 1000 nM. Further, the EC50 in experiment [1] was under 10000 nM.
The like results for `COCC1c2cccc(F)c2CCN1C(=O)O[C@@H]1C[C@H]2C(=O)N[C@]3(C(=O)O)C[C@H]3/C=C\CCCCC[C@H](NC(=O)OC(C)(C)C)C(=O)N2C1` (stereo partly drawn) [AR00365349, (1S,4R,6S,14S,18R)-14-tert-Butoxycarbonylamino-18-(5-fluoro-1-methoxymethyl-3,4-dihydro-1H-isoquinoline-2-carbonyloxy)-2,15-dioxo-3,16-diaza-tricyclo[14.3.0.0^4,6]nonadec-7-ene-4-carboxylic acid] were, in that order, under 1000 nM and under 1000 nM.
For `CC(C)(C)OC(=O)N[C@H]1CCCCC/C=C\[C@@H]2C[C@@]2(C(=O)NS(=O)(=O)C2CC2)NC(=O)[C@@H]2C[C@@H](NC(=O)N3CCc4ccccc4C3)CN2C1=O` [AR00287266, (is, 4R, 6S, 14S, 18R)-{4-Cyclopropanesulfonylaminocarbonyl-18-[(3,4-dihydro-1H-isoquinoline-2-carbonyl)-amino]-2,15-dioxo-3,16-diaza-tricyclo[14.3.0.0^4,6]nonadec-7-en-14-yl}-carbamic acid tert-butyl ester], in that order: under 100 nM and under 1000 nM.
For `CC(C)(C)OC(=O)N[C@H]1CCCCC/C=C\[C@@H]2C[C@@]2(C(=O)NS(=O)(=O)c2ccc(Cl)s2)NC(=O)[C@@H]2C[C@@H](OC(=O)N3Cc4ccccc4C3)CN2C1=O` [AR00334188, (1S,4R,6S,14S,18R)-1,3-Dihydro-isoindole-2-carboxylic acid 14-tert-butoxycarbonylamino-4-(5-chloro-thiophene-2-sulfonylaminocarbonyl)-2,15-dioxo-3,16-diaza-tricyclo[14.3.0.0^4,6]nonadec-7-en-18-yl ester], in that order: under 100 nM and under 1000 nM.
For `O=C(N[C@H]1CCCCC/C=C\[C@@H]2C[C@@]2(C(=O)NS(=O)(=O)C2CC2)NC(=O)[C@@H]2C[C@@H](OC(=O)N3CCc4ccccc4C3)CN2C1=O)OCC(F)(F)F` [AR00320578, (1S,4R,6S,14S,18R)-3,4-Dihydro-1H-isoquinoline-2-carboxylic acid 4-cyclopropanesulfonylaminocarbonyl-2,15-dioxo-14-(2,2,2-trifluoro-ethoxycarbonylamino)-3,16-diaza-tricyclo[14.3.0.0^4,6]nonadec-7-en-18-yl ester], the IC50 at NS3-NS4A protease was under 100 nM. Further, the EC50 in experiment [1] was under 100 nM.
With `O=C(N[C@H]1CCCCCCCC2C[C@@]2(C(=O)NS(=O)(=O)C2CC2)NC(=O)[C@@H]2C[C@@H](OC(=O)N3CCc4ccccc4C3)CN2C1=O)OC1CCCC1` (stereo in doubt) [AR00324375, (1S,4R,6S,14S,18R)-3,4-Dihydro-1H-isoquinoline-2-carboxylic acid 14-cyclopentyloxycarbonylamino-4-cyclopropanesulfonylaminocarbonyl-2,15-dioxo-3,16-diaza-tricyclo[14.3.0.0^4,6]nonadec-18-yl ester], the IC50 on NS3-NS4A protease was under 1000 nM. In experiment [1], the EC50 was under 1000 nM.
For the compound `CC(C)(C)OC(=O)N[C@H]1CCCCC/C=C\[C@@H]2C[C@@]2(C(=O)NS(=O)(=O)C2CC2)NC(=O)[C@@H]2C[C@@H](OC(=O)N3CCc4ccccc4C3)CN2C1=O` [AR00261408, (1S,4R,6S,14S,18R)-3,4-Dihydro-1H-isoquinoline-2-carboxylic acid 14-tert-butoxycarbonylamino-4-cyclopropanesulfonylaminocarbonyl-2,15-dioxo-3,16-diaza-tricyclo[14.3.0.0^4,6]nonadec-7-en-18-yl ester], the IC50 at NS3-NS4A protease was under 100 nM. In experiment [1], the 50% effective concentration (EC50) is under 100 nM.

These data come from US7491794B2, “Macrocyclic compounds as inhibitors of viral replication” (Intermune, Inc., priority 2003, dated 2009).
